These results are taken from EP2522328A1, “Use of resveratrol and ascorbyl-2-glucoside” (DSM IP Assets B.V., priority 2011, dated 2012).

Structures are written as SMILES.

This assay deals with AZGP1. Description: Assessment of gene modulation in normal human epidermal melanocytes (NHEM), RT-qPCR on mRNA (PCR array mQPA H-Melanocyte-64). The format is cell-based. As to conditions: ascorbyl-2-glucoside 1 mg/ml. As for the experimental part:
Normal human epidermal melanocytes were cultivated for 24 hours. […] Cells were cultivated for additional 72 hours. All experimental conditions were performed in triplicate. At the end of the cultivation, the cells were harvested and washed with phosphate buffered saline (PBS) solution and immediately frozen at -80 °C. The expression of selected markers was analyzed using RT-qPCR method on mRNA extracted from cells layer for each treatment condition. The differential expression analysis was performed by PCR arrays of the screening format "mQPA H-Melanocyte-64", which focuses on 64 genes selected for their importance in pigmentation and melanocyte biology. Total RNA was extracted from each sample using TRI-Reagent®. The amount and quality of the RNA was evaluated using a lab-on-a-chip Bioanalyzer (Agilent technologies). Potential contaminants traces of DNA were removed […] The incorporation of fluorescence in amplified DNA was measured continuously during the PCR cycles. […] The value selected for RE calculations is the "output point" (Ct) of the fluorescence curve. For a given marker, the highest is the cycle number; the lowest, is the mRNA quantity. The RE value is expressed in arbitrary units (AU) according to the equation: (((1)/(2)))^NC x 10^6 [formula] Where NC is the number of cycles.
(Quantitative PCR measures a nucleic acid by following its amplification.)

For the compound `O=C1O[C@H]([C@@H](O)CO)C(O)=C1O[C@H]1O[C@H](CO)[C@@H](O)[C@H](O)[C@H]1O` [Ascorbyl-2-glucoside, 2-O-[…]-D-glucopyranosyl-L-Ascorbic acid], for the setting “Homo sapiens, Melanocyte, NHEM cells, 72 hours treatment, resveratrol 5 µg/ml, combination 5 µg/ml + 1 mg/ml, read-out: expression ratio compared to control for the gene AZGP1”, the activation at 1000 µg/mL is 3%. Also, the “down-regulation of AZGP1” value (compared to untreated cells, NEHM cells, resveratrol 5 micrograms/ml, combination 5 microg/ml + 1mg/ml) is “no significant modulation”.
